The values that follow are results of earlier work, collected in US11795119B2, “Stabilized DCD and/or alkyl thiophosphoric triamide solvent systems and use in agricultural applications” (RHODIA OPERATIONS, priority 2016, dated 2023).

The conditions of series [1]: typically above 45° C.

Take `N#CNC(=N)N` [Dicyandiamide, 2-cyanoguanidine]: the solubility in water entry was “about 41 g/l”. On to `CCCCNP(N)(N)=S` [NBPT, N-(n-butyl)-thiophosphoric triamide], for which the “degradation at higher temperature” value in series [1] was “degrades rapidly”.
